Earlier results in publication PMC8426237, “A first-in-human phase I study of TAS0728, an oral covalent binding inhibitor of HER2, in patients with advanced solid tumors with HER2 or HER3 aberrations” (Investigational New Drugs, 2021).
Read-outs that look alike come from different tables or passages of the source.

Details: cited from earlier work; for Diarrhea in patients: approved oral HER2-inhibitory compounds; for Diarrhea toxicity grade: HER2-positive breast cancer

Cc1cc(Nc2ncnc3ccc(NC4=NC(C)(C)CO4)cc23)ccc1Oc1ccn2ncnc2c1 [tucatinib]
Diarrhea in patients: associated with severe diarrhea

CS(=O)(=O)CCNCc1ccc(-c2ccc3ncnc(Nc4ccc(OCc5cccc(F)c5)c(Cl)c4)c3c2)o1 [lapatinib]
Diarrhea in patients: associated with severe diarrhea

CCOc1cc2ncc(C#N)c(Nc3ccc(OCc4ccccn4)c(Cl)c3)c2cc1NC(=O)/C=C/CN(C)C [neratinib]
Diarrhea toxicity grade (ExteNET trial): Grade 3 or 4
Diarrhea in patients: associated with severe diarrhea
Response of patients with tumors harboring HER2 G778_P780dup: respond to treatment

CN(C)C/C=C/C(=O)Nc1cc2c(Nc3ccc(F)c(Cl)c3)ncnc2cc1O[C@H]1CCOC1 [afatinib]
Diarrhea toxicity grade (LUX-BREAST-1/−3 studies): Grade 3 or 4
Diarrhea in patients: associated with severe diarrhea
